How the values were obtained:
Assay in all cases: NCI60 cell line screen (SRB)
Type in all cases: cell-based, human
[1] = test system: CCRF-CEM; conditions: Leukemia, 48 h
Experimental: (§1) This panel implements the NCI60 cell line screen, including leukemia, non-small cell lung cancer, colon cancer, central nervous system cancer, melanoma, ovarian cancer, renal cancer, prostate cancer and breast cancer. The cell lines tested are specified in Table 3.
(§2) Generally, the human tumor cell lines of the cancer screening panel are grown in RPMI 1640 medium containing 5% fetal bovine serum and 2 mM L-glutamine. For a typical screening experiment, cells are inoculated into 96 well microtiter plates in 100 μL at plating densities ranging from 5,000 to 40,000 cells/well depending on the doubling time of individual cell lines. After cell inoculation, the microtiter plates are incubated at 37° C., 5% CO2, 95% air and 100% relative humidity for 24 h prior to addition of experimental drugs. After 24 h, two plates of each cell line are fixed in situ with TCA, to represent a measurement of the cell population for each cell line at the time of drug addition (Tz). Experimental drugs are solubilized in dimethyl sulfoxide at 400-fold the desired final maximum test concentration and stored frozen prior to use. At the time of drug addition, an aliquot of frozen concentrate is thawed and diluted to twice the desired final maximum test concentration with complete medium containing 50 μg/ml gentamicin. Additional four, 10-fold or ½ log serial dilutions are made to provide a total of five drug concentrations plus control. Aliquots of 100 μl of these different drug dilutions are added to the appropriate microtiter wells already containing 100 μl of medium, resulting in the required final drug concentrations.
(§3) Following drug addition, the plates are incubated for an additional 48 h at 37° C., 5% CO2, 95% air, and 100% relative humidity. For adherent cells, the assay is terminated by the addition of cold TCA. Cells are fixed in situ by the gentle addition of 50 μl of cold 50% (w/v) TCA (final concentration, 10% TCA) and incubated for 60 minutes at 4° C. The supernatant is discarded, and the plates are washed five times with tap water and air dried. Sulforhodamine B (SRB) solution (100 μl) at 0.4% (w/v) in 1% acetic acid is added to each well, and plates are incubated for 10 minutes at room temperature. After staining, unbound dye is removed by washing five times with 1% acetic acid and the plates are air dried. Bound stain is subsequently solubilized with 10 mM trizma base, and the absorbance is read on an automated plate reader at a wavelength of 515 nm. For suspension cells, the methodology is the same except that the assay is terminated by fixing settled cells at the bottom of the wells by gently adding 50 μl of 80% TCA (final concentration, 16% TCA). Using the seven absorbance measurements (time zero, Tz, control growth, (control), and test growth in the presence of drug at the five concentration levels (Ti)), the percentage growth is calculated at each of the drug concentrations levels. Percentage growth inhibition is calculated as:
(§4) [(Ti−Tz)/(C−Tz)]×100 for concentrations for which Ti>/=Tz
(§5) [(Ti−Tz)/Tz]×100 for concentrations for which Ti<Tz.

[2] = test system: SN12C; conditions: Renal Cancer, 48 h
Experimental: as §1, §2, §3, §4, §5

[3] = test system: RPMO-8226; conditions: RPMO-8226, Leukemia; 48 h
Experimental: as §1, §2, §3, §4, §5

[4] = test system: OVCAR4; conditions: OVCAR4, Ovarian Cancer, 48 h
Experimental: as §1, §2, §3, §4, §5

[5] = test system: A498; conditions: A498, Renal Cancer, 48 h
Experimental: as §1, §2, §3, §4, §5

[6] = test system: LOX IMVI; conditions: Melanoma, 48 h
Experimental: as §1, §2, §3, §4, §5

[7] = test system: MALME-3M; conditions: Melanoma, 48 h
Experimental: as §1, §2, §3, §4, §5

[8] = test system: MDA-MB-231/ATCC; conditions: Breast Cancer, 48 h
Experimental: as §1, §2, §3, §4, §5

[9] = test system: SR; conditions: Leukemia, 48 h
Experimental: as §1, §2, §3, §4, §5

[10] = test system: HCC-2998; conditions: HCC-2998, Colon Cancer, 48 h
Experimental: as §1, §2, §3, §4, §5

[11] = test system: SF-539; conditions: SF-539, CNS Cancer, 48 h
Experimental: as §1, §2, §3, §4, §5

[12] = test system: OVCAR3; conditions: OVCAR3, Ovarian Cancer, 48 h
Experimental: as §1, §2, §3, §4, §5

[13] = test system: MDA-MB-435; conditions: MDA-MB-435, Breast Cancer, 48 h
Experimental: as §1, §2, §3, §4, §5

[14] = test system: UO-31; conditions: UO-31, Renal Cancer, 48 h
Experimental: as §1, §2, §3, §4, §5

[15] = test system: SK-OV-3; conditions: SK-OV-3, Ovarian Cancer, 48 h
Experimental: as §1, §2, §3, §4, §5

[16] = test system: HL-60; conditions: HL-60, Leukemia, 48 h
Experimental: as §1, §2, §3, §4, §5

[17] = test system: BT-459; conditions: BT-459, Breast Cancer, 48 h
Experimental: as §1, §2, §3, §4, §5

[18] = test system: MOLT-4; conditions: MOLT-4, Leukemia, 48 h
Experimental: as §1, §2, §3, §4, §5

[19] = test system: HT-29; conditions: HT-29, Colon Cancer, 48 h
Experimental: as §1, §2, §3, §4, §5

[20] = test system: HCT-116; conditions: HCT-116, Colon Cancer, 48 h
Experimental: as §1, §2, §3, §4, §5

[21] = test system: NCI-H460; conditions: NCI-H460, Non-Small Cell Lung Cancer, 48 h
Experimental: as §1, §2, §3, §4, §5

[22] = test system: SF-268; conditions: SF-268, CNS Cancer, 48 h
Experimental: as §1, §2, §3, §4, §5

[23] = test system: DU-145; conditions: DU-145, Prostate Cancer, 48 h
Experimental: as §1, §2, §3, §4, §5

[24] = test system: MCF-7; conditions: MCF-7, Breast Cancer, 48 h
Experimental: as §1, §2, §3, §4, §5

[25] = test system: UACC-62; conditions: UACC-62, Melanoma, 48 h
Experimental: as §1, §2, §3, §4, §5

[26] = test system: SF-295; conditions: SF-295, CNS Cancer, 48 h
Experimental: as §1, §2, §3, §4, §5

CNC1=CC2=NCCc3c[nH]c(c32)C1=O [Compound 4a]
GI50 [1]: 2970 nM
GI50 [2]: 3060 nM
GI50 [3]: 5990 nM
GI50 [4]: 1080 nM
GI50 [5]: 20700 nM
GI50 [6]: 3430 nM
GI50 [7]: 1210 nM
GI50 [8]: 3130 nM
GI50 [9]: 3120 nM
GI50 [10]: 4910 nM
GI50 [11]: 2390 nM
GI50 [12]: 6300 nM
GI50 [13]: 1800 nM
GI50 [14]: 14600 nM
GI50 [15]: 18700 nM
GI50 [16]: 2540 nM
GI50 [17]: 7380 nM
GI50 [18]: 1970 nM
GI50 [19]: 2540 nM
GI50 [20]: 2940 nM
GI50 [21]: 2160 nM
GI50 [22]: 2090 nM
GI50 [23]: 2290 nM
GI50 [24]: 1520 nM
GI50 [25]: 2490 nM
GI50 [26]: 1210 nM

O=C1C(NCc2ccccc2)=CC2=NCCc3c[nH]c1c32 [Compound 4c]
GI50 [1]: 900 nM
GI50 [2]: 1890 nM
GI50 [3]: 1360 nM
GI50 [4]: 624 nM
GI50 [5]: 16500 nM
GI50 [6]: 1810 nM
GI50 [7]: 300 nM
GI50 [8]: 439 nM
GI50 [9]: 1750 nM
GI50 [10]: 2610 nM
GI50 [11]: 1910 nM
GI50 [12]: 2580 nM
GI50 [13]: 2030 nM
GI50 [14]: 2630 nM
GI50 [15]: 7010 nM
GI50 [16]: 325 nM
GI50 [17]: 4580 nM
GI50 [18]: 315 nM
GI50 [19]: 488 nM
GI50 [20]: 306 nM
GI50 [21]: 1510 nM
GI50 [22]: 2830 nM
GI50 [23]: 1790 nM
GI50 [24]: 61 nM
GI50 [25]: 1820 nM
GI50 [26]: 1120 nM

O=C(O)C(F)(F)F.O=C1C(NCCc2ccc3c(c2)OCO3)=CC2=NCCc3c[nH]c1c32 [Compound 6]
GI50 ([1]; Homo sapiens): 2970 nM
GI50 ([2]; Homo sapiens): 2690 nM
GI50 ([4]; Homo sapiens, OVCAR-4): 971 nM
GI50 ([5]; Homo sapiens): 6030 nM
GI50 ([6]; Homo sapiens): 1680 nM
GI50 ([7]; Homo sapiens): 343 nM
GI50 ([8]; Homo sapiens): 2320 nM
GI50 ([9]; Homo sapiens): 2500 nM
GI50 ([10]; Homo sapiens): 1560 nM
GI50 ([11]; Homo sapiens): 2210 nM
GI50 ([12]; Homo sapiens, OVCAR-3): 2020 nM
GI50 ([13]; Homo sapiens): 1890 nM
GI50 ([14]; Homo sapiens): 5840 nM
GI50 ([15]; Homo sapiens): 9700 nM
GI50 ([16]; Homo sapiens): 1920 nM
GI50 ([17]; Homo sapiens): 3070 nM
GI50 ([18]; Homo sapiens): 2020 nM
GI50 ([19]; Homo sapiens): 2070 nM
GI50 ([20]; Homo sapiens): 2410 nM
GI50 ([21]; Homo sapiens): 1010 nM
GI50 ([22]; Homo sapiens): 3660 nM
GI50 ([23]; Homo sapiens): 1350 nM
GI50 ([24]; Homo sapiens, MCF7): 1210 nM
GI50 ([25]; Homo sapiens): 2320 nM
GI50 ([26]; Homo sapiens): 1870 nM

COc1ccc(CCNC2=CC3=NCCc4c[nH]c(c43)C2=O)cc1OC.O=C(O)C(F)(F)F [Compound 20]
GI50 ([1]; Homo sapiens): 10600 nM
GI50 ([2]; Homo sapiens): 3070 nM
GI50 ([4]; Homo sapiens, OVCAR-4): 1160 nM
GI50 ([5]; Homo sapiens): 7240 nM
GI50 ([6]; Homo sapiens): 2340 nM
GI50 ([7]; Homo sapiens): 249 nM
GI50 ([8]; Homo sapiens): 3210 nM
GI50 ([9]; Homo sapiens): 5690 nM
GI50 ([10]; Homo sapiens): 2350 nM
GI50 ([11]; Homo sapiens): 3280 nM
GI50 ([12]; Homo sapiens, OVCAR-3): 1610 nM
GI50 ([13]; Homo sapiens): 2050 nM
GI50 ([14]; Homo sapiens): 7110 nM
GI50 ([15]; Homo sapiens): 14600 nM
GI50 ([16]; Homo sapiens): 3140 nM
GI50 ([17]; Homo sapiens): 4530 nM
GI50 ([18]; Homo sapiens): 4950 nM
GI50 ([19]; Homo sapiens): 2540 nM
GI50 ([20]; Homo sapiens): 2400 nM
GI50 ([21]; Homo sapiens): 1420 nM
GI50 ([22]; Homo sapiens): < 10 nM
GI50 ([23]; Homo sapiens): 2810 nM
GI50 ([24]; Homo sapiens, MCF7): 2610 nM
GI50 ([25]; Homo sapiens): 2170 nM
GI50 ([26]; Homo sapiens): 1840 nM

— patent US20100144779A1, “Marine Alkalod Makaluvamines and Derivatives Thereof” (THE UAB RESEARCH FOUNDATION, priority 2007, published 2010)
